Source: ChEMBL document CHEMBL1143441, “New classes of Gram-positive selective antibacterials: inhibitors of MRSA and surrogates of the causative agents of anthrax and tuberculosis” (2008)
≈ marks a conversion by molar mass, not a printed value.

Legend:
Type in all cases: functional
Escherichia coli = assay: Antimicrobial activity against Escherichia coli by NCCLS M7-A6 method
Bacillus cereus = assay: Antimicrobial activity against Bacillus cereus by NCCLS M7-A6 method
Staphylococcus aureus [1] = assay: Antimicrobial activity against methicillin-resistant Staphylococcus aureus MC1 by NCCLS M7-A6 method
[2] = system: Mycolicibacterium smegmatis; assay: Antimicrobial activity against Mycobacterium smegmatis by NCCLS M7-A6 method
Staphylococcus aureus [3] = assay: Antimicrobial activity against Staphylococcus aureus ATCC 29213 by NCCLS M7-A6 method
Enterococcus faecium [4] = assay: Antimicrobial activity against vancomycin-resistant Enterococcus faecium 14 by NCCLS M7-A6 method
Pseudomonas aeruginosa = assay: Antimicrobial activity against Pseudomonas aeruginosa by NCCLS M7-A6 method
Streptococcus mitis = assay: Antimicrobial activity against Streptococcus mitis by NCCLS M7-A6 method
Bacillus subtilis = assay: Antimicrobial activity against Bacillus subtilis by NCCLS M7-A6 method
Streptococcus agalactiae = assay: Antimicrobial activity against Streptococcus agalactiae by NCCLS M7-A6 method
Streptococcus pneumoniae = assay: Antimicrobial activity against Streptococcus pneumoniae ATCC 49619 by NCCLS M7-A6 method
Bacillus anthracis = assay: Antimicrobial activity against Bacillus anthracis Sterne by NCCLS M7-A6 method
Corynebacterium xerosis = assay: Antimicrobial activity against Corynebacterium xerosis by NCCLS M7-A6 method
Enterococcus faecium [5] = assay: Antimicrobial activity against vancomycin-resistant Enterococcus faecium 1 by NCCLS M7-A6 method
Staphylococcus aureus [6] = assay: Antimicrobial activity against methicillin-resistant Staphylococcus aureus MC2 by NCCLS M7-A6 method
[7] = system: Corynebacterium pseudodiphtheriticum; assay: Antimicrobial activity against Corynebacterium pseudodiphtheriticum by NCCLS M7-A6 method
[8] = system: Corynebacterium diphtheriae; assay: Antimicrobial activity against Corynebacterium diphtheriae Tox by NCCLS M7-A6 method
Streptococcus pyogenes = assay: Antimicrobial activity against Streptococcus pyogenes by NCCLS M7-A6 method
Priestia megaterium = assay: Antimicrobial activity against Bacillus megaterium by NCCLS M7-A6 method
Enterococcus faecalis = assay: Antimicrobial activity against Enterococcus faecalis ATCC 29212 by NCCLS M7-A6 method
Staphylococcus aureus [9] = assay: Antimicrobial activity against Staphylococcus aureus ATCC 25923 by NCCLS M7-A6 method
Listeria monocytogenes = assay: Antimicrobial activity against Listeria monocytogenes by NCCLS M7-A6 method

SMILES	MIC (Escherichia coli)	MIC (Bacillus cereus)	MIC (Staphylococcus aureus [1])	MIC [2]	MIC (Staphylococcus aureus [3])	also measured
COc1cc(O)cc(/C=C/Oc2cccc(C)c2)c1	> 512 µg/mL	32 µg/mL (≈ 125 µM)	32 µg/mL (≈ 125 µM)	64 µg/mL (≈ 250 µM)	16 µg/mL (≈ 62.4 µM)	–
COc1cc(OC)cc(O/C=C/c2ccccc2)c1	> 512 µg/mL	> 512 µg/mL	> 512 µg/mL	> 512 µg/mL	> 512 µg/mL	–
COc1cc(/C=C/Oc2cccc(C)c2)cc(OC)c1	> 512 µg/mL	> 512 µg/mL	> 512 µg/mL	> 512 µg/mL	> 512 µg/mL	–
COc1cc(/C=C/Sc2ccccc2)cc(OC)c1	> 512 µg/mL	> 512 µg/mL	> 512 µg/mL	> 512 µg/mL	> 512 µg/mL	–
COc1cc(O)cc(/C=C/Oc2ccccc2C)c1	> 512 µg/mL	64 µg/mL (≈ 250 µM)	32 µg/mL (≈ 125 µM)	> 128 µg/mL	16 µg/mL (≈ 62.4 µM)	–
COc1cc(/C=C/Oc2ccccc2C)cc(OC)c1	> 512 µg/mL	> 512 µg/mL	> 512 µg/mL	> 512 µg/mL	> 512 µg/mL	–
COc1cc(/C=C/Oc2ccccc2)cc(OC)c1	> 512 µg/mL	> 512 µg/mL	> 512 µg/mL	> 512 µg/mL	> 512 µg/mL	–
COc1cc(O)cc(/C=C/c2ccsc2)c1	> 512 µg/mL	32 µg/mL (≈ 138 µM)	32 µg/mL (≈ 138 µM)	64 µg/mL (≈ 276 µM)	32 µg/mL (≈ 138 µM)	–
COc1cc(O)cc(O/C=C/c2ccccc2)c1	> 512 µg/mL	64 µg/mL (≈ 264 µM)	32 µg/mL (≈ 132 µM)	128 µg/mL (≈ 528 µM)	32 µg/mL (≈ 132 µM)	–
COc1cc(/C=C/c2cccs2)cc(OC)c1	> 512 µg/mL	> 512 µg/mL	> 512 µg/mL	> 512 µg/mL	> 512 µg/mL	–
COc1cc(O)cc(/C=C/Oc2ccc(C)cc2)c1	> 512 µg/mL	64 µg/mL (≈ 250 µM)	32 µg/mL (≈ 125 µM)	> 128 µg/mL	16 µg/mL (≈ 62.4 µM)	–
COc1cc(O)cc(/C=C/Oc2ccccc2)c1	> 512 µg/mL	32 µg/mL (≈ 132 µM)	64 µg/mL (≈ 264 µM)	128 µg/mL (≈ 528 µM)	32 µg/mL (≈ 132 µM)	–
COc1cc(/C=C/Oc2ccc(C)cc2)cc(OC)c1	> 512 µg/mL	> 512 µg/mL	> 512 µg/mL	> 512 µg/mL	> 512 µg/mL	–
COc1cc(O)cc(/C=C/Oc2cccc(OC)c2)c1	> 512 µg/mL	64 µg/mL (≈ 235 µM)	64 µg/mL (≈ 235 µM)	128 µg/mL (≈ 470 µM)	16 µg/mL (≈ 58.8 µM)	–
COc1cc(O)cc(/C=C/Sc2ccccc2)c1	> 512 µg/mL	16 µg/mL (≈ 61.9 µM)	32 µg/mL (≈ 124 µM)	128 µg/mL (≈ 495 µM)	16 µg/mL (≈ 61.9 µM)	–
COc1cc(/C=C/c2ccccc2)cc(OC)c1 [3,5-O-DIMETHYLPINOSYLVIN]	> 512 µg/mL	> 512 µg/mL	> 512 µg/mL	> 512 µg/mL	> 512 µg/mL	–
COc1ccc(O/C=C/c2cc(OC)cc(OC)c2)cc1	> 512 µg/mL	> 512 µg/mL	> 512 µg/mL	> 512 µg/mL	> 512 µg/mL	–
COc1cc(/C=C/Oc2cccc(OC)c2)cc(OC)c1	> 512 µg/mL	> 512 µg/mL	> 512 µg/mL	> 512 µg/mL	> 512 µg/mL	–
COc1cc(O)cc(/C=C/c2ccccc2)c1 [PINOSYLVIN METHYL ETHER]	> 512 µg/mL	16 µg/mL (≈ 70.7 µM)	32 µg/mL (≈ 141 µM)	64 µg/mL (≈ 283 µM)	32 µg/mL (≈ 141 µM)	MIC (Enterococcus faecium [4]): 16 µg/mL (≈ 70.7 µM); MIC (Pseudomonas aeruginosa): > 128 µg/mL; MIC (Streptococcus mitis): 64 µg/mL (≈ 283 µM); MIC (Bacillus subtilis): 16 µg/mL (≈ 70.7 µM); MIC (Streptococcus agalactiae): 32 µg/mL (≈ 141 µM); MIC (Streptococcus pneumoniae): 8 µg/mL (≈ 35.4 µM); MIC (Bacillus anthracis): 8 µg/mL (≈ 35.4 µM); MIC (Corynebacterium xerosis): 16 µg/mL (≈ 70.7 µM); MIC (Enterococcus faecium [5]): 16 µg/mL (≈ 70.7 µM); MIC (Staphylococcus aureus [6]): 32 µg/mL (≈ 141 µM); MIC [7]: 16 µg/mL (≈ 70.7 µM); MIC [8]: 32 µg/mL (≈ 141 µM); MIC (Streptococcus pyogenes): 16 µg/mL (≈ 70.7 µM); MIC (Priestia megaterium): 64 µg/mL (≈ 283 µM); MIC (Enterococcus faecalis): 16 µg/mL (≈ 70.7 µM); MIC (Staphylococcus aureus [9]): 32 µg/mL (≈ 141 µM); MIC (Listeria monocytogenes): 32 µg/mL (≈ 141 µM)
COc1ccc(O/C=C/c2cc(O)cc(OC)c2)cc1	> 512 µg/mL	64 µg/mL (≈ 235 µM)	64 µg/mL (≈ 235 µM)	128 µg/mL (≈ 470 µM)	16 µg/mL (≈ 58.8 µM)	–
COc1cc(O)cc(/C=C/c2cccs2)c1	> 512 µg/mL	32 µg/mL (≈ 138 µM)	32 µg/mL (≈ 138 µM)	128 µg/mL (≈ 551 µM)	16 µg/mL (≈ 68.9 µM)	–
